Experimental data as given in US20240390438A1, “PROBIOTICS SEPARATED FROM RABBIT FECES AND FOOD CONTAINING PROBIOTICS” (AGENT Innovation Co., Ltd., priority 2021, published 2024).
≈ marks a conversion by molar mass, not a printed value.

Experiments:
[1] = test system: L. plantarum 299; conditions: from Klarin et al., 2019; cited from earlier work
[2] = test system: Shigella sonnei; assay: Agar diffusion method-2 (cell-free solution); type: cell-based; conditions: colonies as cell-free solution in holes of TSA; ddH2O control 8
Description: (§1) Firstly, the CFSs (containing metabolites) were prepared. Besides, when probiotics break down fiber and convert the fiber into metabolites, the metabolites are postbiotics.
(§2) Next, the pathogenic bacteria described above were also cultured with 37° C. until the concentration thereof reached 1×10^8 CFU/mL, respectively. 100 μL bacterial solutions of the pathogenic bacteria described above were evenly plated on Tryptone Soy Agar (TSA) and stay for 10 minutes. Then, tips were used to form several holes in the TSA. Subsequently, 100 μL bacterial solutions of the colonies described above were added into the holes and then cultured at 37° C. for 12 hours.
(§3) This experiment is designed that the CFSs in the holes prevent the pathogenic bacteria on the plates from growing. Therefore, the larger zone indicates the better antibacterial effect.

[3] = test system: Salmonella enterica; assay: Agar diffusion method-2 (cell-free solution); type: cell-based; conditions: colonies as cell-free solution in holes of TSA; ddH2O control 8
Description: as §1, §2, §3

[4] = test system: Escherichia coli (ETEC); assay: Agar diffusion method-2 (cell-free solution); type: cell-based; conditions: colonies as cell-free solution in holes of TSA; ddH2O control 8
Description: as §1, §2, §3

[5] = test system: Klebsiella pneumoniae; assay: Agar diffusion method-2 (cell-free solution); type: cell-based; conditions: colonies as cell-free solution in holes of TSA; ddH2O control 8
Description: as §1, §2, §3

[6] = test system: Streptococcus pneumoniae; assay: Agar diffusion method-2 (cell-free solution); type: cell-based; conditions: colonies as cell-free solution in holes of TSA; ddH2O control 8
Description: as §1, §2, §3

[7] = test system: Pseudomonas aeruginosa; assay: Agar diffusion method-2 (cell-free solution); type: cell-based; conditions: colonies as cell-free solution in holes of TSA; ddH2O control 8
Description: as §1, §2, §3

[8] = test system: Bacillus cereus; assay: Agar diffusion method-2 (cell-free solution); type: cell-based; conditions: colonies as cell-free solution in holes of TSA; ddH2O control 8
Description: as §1, §2, §3

[9] = test system: L. pl 24-5D; conditions: from Georgieva et al., 2015; cited from earlier work
[10] = test system: L. pl 24-2L; conditions: from Georgieva et al., 2015; cited from earlier work
[11] = test system: L. plantarum 299v; conditions: from Klarin et al., 2019; cited from earlier work
[12] = test system: Shigella sonnei; assay: Minimum inhibitory concentration and minimum bacterial concentration; type: cell-based; conditions: antibiotics; for MIC: 37 C 24 h, OD600; for MBC: plated on nutrient agar 48-72 h
Description: (§4) Minimum inhibitory concentration (MIC) refers to the minimum concentration at which the development of bacteria can be blocked and antibacterial resistance can be observed after cultured. The lower MIC means the better effect on bacteria.
(§5) The supernatants of the cultured colonies described above were collected, as cell-free solutions (CFSs), by centrifuge at 5000 rpm after cultured the colonies in a nutrient broth and shaking at 37° C. for 48 hours.
(§6) Next, 100 μL each of the CFSs and 100 μL bacterial solutions of the pathogenic bacteria were respectively added to each well of a 96-well plate. Thus, the total volume in each well was 200 μL. The tested pathogenic bacteria included Salmonella enterica, Shigella sonnei, Klebsiella pneumoniae, Streptococcus pneumoniae, Bacillus cereus, Staphylococcus aureus, Pseudomonas aeruginosa, and Escherichia coli.
(§7) As well, 100 μL each of the nutrient broth containing Ampicillin or Kanamycin and 100 μL bacterial solutions of the pathogenic bacteria were respectively added to each well of a 96-well plate. Thus, the total volume in each well was 200 μL.
(§8) Then, initial values of OD600 in each well were recorded. Subsequently, the 96-well plates were cultured at 37° C. for 24 hours, and the OD600 values thereof were re-recorded for determining the MICs of each colony described above.
(§9) Finally, 100 μL CFSs of the next three concentrations […] MIC were taken to be plated on nutrient agar and then cultured at 37° C. for 48-72 hours. The concentrations of the CFSs that no colonies grown on nutrient agar were determined to be the minimum bacterial concentration (MBCs).

[13] = test system: Staphylococcus aureus; assay: as above; type: cell-based; conditions: antibiotics; for MIC: 37 C 24 h, OD600; for MBC: plated on nutrient agar 48-72 h
Description: as §4, §5, §6, §7, §8, §9

[14] = test system: Colony LP2; assay: Antibiotic susceptibility test; type: cell-based, Lactiplantibacillus Plantarum; conditions: Lactiplantibacillus plantarum, LP2, 24 h, 96-well, 37 C 24 h, OD600; read-out: Minimum inhibitory concentration of the antibiotic to LP2
Source text: (§10) To test bacterial susceptibility to antibiotics, such as Aminoglycosides antibiotics, Sulfonamide antibiotics, Quinolone antibiotics, Ampicillin, Cefotaxime, Chloramphenicol, Erythromycin, Rifampicin and Tetracycline, the experimental protocol were as follow. Further, the Quinolone antibiotics comprise Ciprofloxacin, the Aminoglycosides antibiotics comprise Kanamycin and […], and the Sulfonamide antibiotics comprise Sulfamethoxazole. […] The initial absorbance at 600 nm (OD600) of each well was recorded. Then, the 96-well plates were placed at 37° C. and cultured for 24 hours. Next, the OD600 of each well was measured again to determine minimum inhibitory concentration.

[15] = test system: Colony PTA22; assay: Antibiotic susceptibility test; type: cell-based, Lactiplantibacillus Plantarum; conditions: Lactiplantibacillus plantarum, PTA22, 24 h, read-out: Minimum inhibitory concentration of the antibiotic to PTA22, 96-well, 37 C 24 h, OD600
Source text: as §10

[16] = test system: Colony LP19; assay: Antibiotic susceptibility test; type: cell-based, Lactiplantibacillus Plantarum; conditions: Lactiplantibacillus plantarum, LP19, 24 h, read-out: Minimum inhibitory concentration of the antibiotic to LP19, 96-well, 37 C 24 h, OD600
Source text: as §10

[17] = test system: Colony LP5; assay: Antibiotic susceptibility test; type: cell-based, Lactiplantibacillus Plantarum; conditions: Lactiplantibacillus plantarum, LP5, 24 h, read-out: Minimum inhibitory concentration of the antibiotic to LP5, 96-well, 37 C 24 h, OD600
Source text: as §10

[18] = test system: Colony LP1; assay: Antibiotic susceptibility test; type: cell-based, Lactiplantibacillus Plantarum; conditions: Lactiplantibacillus plantarum, LP1, 24 h, read-out: Minimum inhibitory concentration of the antibiotic to LP1, 96-well, 37 C 24 h, OD600
Source text: as §10

[19] = test system: species L. plantarum; conditions: EFSA (2005); cited from earlier work
[20] = test system: Escherichia coli (ETEC); assay: Minimum inhibitory concentration and minimum bacterial concentration; type: cell-based; conditions: antibiotics
Description: as §4, §5, §6, §7, §8, §9

[21] = test system: Klebsiella pneumoniae; assay: as above; type: cell-based; conditions: antibiotics
Description: as §4, §5, §6, §7, §8, §9

[22] = test system: Streptococcus pneumoniae; assay: as above; type: cell-based; conditions: antibiotics
Description: as §4, §5, §6, §7, §8, §9

[23] = test system: Pseudomonas aeruginosa; assay: as above; type: cell-based; conditions: antibiotics
Description: as §4, §5, §6, §7, §8, §9

[24] = test system: Bacillus cereus; assay: as above; type: cell-based; conditions: antibiotics
Description: as §4, §5, §6, §7, §8, §9

[25] = plated on nutrient agar 48-72 h

Row | SMILES | Minimum inhibitory concentration of the antibiotic to L. plantarum 299 [1] [µg/mL] | Minimum inhibitory concentration of the antibiotic to L. pl 24-5D [9] [µg/mL] | Minimum inhibitory concentration of the antibiotic to L. pl 24-2L [10] [µg/mL] | Minimum inhibitory concentration of the antibiotic to L. plantarum 299v [11] [µg/mL] | MIC [12] [µg/mL] | MBC [12] [µg/mL] | MIC [13] [µg/mL] | MBC [13] [µg/mL] | MIC [14] [µg/mL] | MIC [15] [µg/mL] | MIC [16] [µg/mL] | MIC [17] [µg/mL] | MIC [18] [µg/mL] | EFSA, MIC breakpoints species L. plantarum [19] [µg/mL] | further results
1 | CC1(C)S[C@@H]2[C@H](NC(=O)[C@H](N)c3ccccc3)C(=O)N2[C@H]1C(=O)O [Ampicillin] | 0.094 | 1 | 0.38 | 0.094 | 8 (≈ 22.9 µM) | 16 (≈ 45.8 µM) | 0.5 (≈ 1.43 µM) | 1 (≈ 2.86 µM) | 0.25 (≈ 0.715 µM) | 0.5 (≈ 1.43 µM) | 0.25 (≈ 0.715 µM) | 0.25 (≈ 0.715 µM) | 0.125 (≈ 0.358 µM) | 4 | Inhibitory zone, Shigella Sonnei [2]: 12 mm; Inhibitory zone, Salmonella Enterica [3]: 8 mm; Inhibitory zone, Escherichia coli (ETEC) [4]: 8 mm; Inhibitory zone, Klebsiella Pneumoniae [5]: 8 mm; Inhibitory zone, Streptococcus Pneumoniae [6]: 8 mm; Inhibitory zone, Pseudomonas Aeruginosa [7]: 8 mm; Inhibitory zone, Bacillus Cereus [8]: 8 mm
2 | CO/N=C(\C(=O)N[C@@H]1C(=O)N2C(C(=O)O)=C(COC(C)=O)CS[C@H]12)c1csc(N)n1 [Cefotaxime] | 0.094 |  |  | 0.094 |  |  |  |  | < 0.125 | < 0.125 | < 0.125 | < 0.125 | < 0.125 |  | 
3 | O=C(N[C@H](CO)[C@H](O)c1ccc([N+](=O)[O-])cc1)C(Cl)Cl [Chloramphenicol] | 2 | 6 | 4 | 2 |  |  |  |  | 8 (≈ 24.8 µM) | 32 (≈ 99 µM) | 16 (≈ 49.5 µM) | 16 (≈ 49.5 µM) | 8 (≈ 24.8 µM) | 8 | 
4 | O=C(O)c1cn(C2CC2)c2cc(N3CCNCC3)c(F)cc2c1=O [Ciprofloxacin] |  |  |  |  |  |  |  |  | > 128 | > 128 | > 128 | > 128 | > 128 |  | 
5 | CCN1CCN(c2cc3c(cc2F)c(=O)c(C(=O)O)cn3C2CC2)CC1 [Enrofloxacin] |  |  |  |  | < 0.125 | < 0.125 | 1 (≈ 2.78 µM) | 1 (≈ 2.78 µM) | 64 (≈ 178 µM) | 64 (≈ 178 µM) | 64 (≈ 178 µM) | 64 (≈ 178 µM) | 64 (≈ 178 µM) |  | MIC ([20]; 37 C 24 h, OD600): 4 µg/mL (≈ 11.1 µM); MBC [20, 25]: 8 µg/mL (≈ 22.3 µM); MIC ([21]; 37 C 24 h, OD600): 32 µg/mL (≈ 89 µM); MBC [21, 25]: 32 µg/mL (≈ 89 µM); MIC ([22]; 37 C 24 h, OD600): 0.25 µg/mL (≈ 0.696 µM); MBC [22, 25]: 0.5 µg/mL (≈ 1.39 µM); MIC ([23]; 37 C 24 h, OD600): 16 µg/mL (≈ 44.5 µM); MBC [23, 25]: 16 µg/mL (≈ 44.5 µM); MIC ([24]; 37 C 24 h, OD600): 8 µg/mL (≈ 22.3 µM); MBC [24, 25]: 8 µg/mL (≈ 22.3 µM)
